Experimental data from patent US10548979B2, “Light-activated compositions and methods using the same” (THE REGENTS OF THE UNIVERSITY OF COLORADO, A BODY CORPORATE, priority 2015, dated 2020).

What was measured:
MDR S. typhimurium = assay: Antibiotic IC50 measurement (Resazurin) in clinical isolates; format: cell-based, Salmonella typhimurium; conditions: 24 h growth
Procedure: Overnight cultures of clinical isolates were diluted to a 0.5 McFarland standard in CAMHB with respective test concentration of antibiotic. […] The slope of Resazurin fluorescence was used a quantitative measure of cell metabolism.

MDR E. coli = assay: as above; format: cell-based, Escherichia coli; conditions: 24 h growth
Procedure: Overnight cultures of clinical isolates were diluted to a 0.5 McFarland standard in CAMHB with respective test concentration of antibiotic. Cultures were grown for 24 h at 37° C. with 225 rpm shaking. After 24 h of growth, Resazurin sodium salt (Sigma Aldrich) solution was added and the reaction was monitored for fluorescence measuring every 5 min for 4 h at 37° C. with 225 rpm shaking using 485/610 nm filters. The slope of Resazurin fluorescence was used a quantitative measure of cell metabolism. The IC50 was determined as the concentration of antibiotic which caused a 50% reduction in slope compared to the same biological replicate in no treatment.

ESBL K. pneumoniae = assay: Combinatorial experiments CdTe-2.4 with antibiotic, growth (optical density); format: cell-based, Klebsiella pneumoniae; conditions: breakpoint amount of streptomycin, without CdTe-2.4
Procedure: Five antibiotic concentrations were selected for each strain, so that the levels tested would be below the IC50, near the CLSI or defined breakpoint, and near the IC50. Concentrations of CdTe-2.4 were held constant for all strains at 12.5 nM, 25 nM, and 50 nM. Using these metrics, three biological replicates were tested from each strain with 15 test conditions as well as monotherapy controls and a no treatment condition. Clinical strains were diluted 1:100 from overnight into test condition and grown at 37° C. with 225 rpm. Optical density was measured every 30 min for the first 3 h and every hour subsequently until 8 h. After 8 h of growth, Resazurin sodium salt solution was added and the reaction was monitored for fluorescence measuring every 5 min for 4 h at 37° C. with 225 rpm shaking using 485/610 nm filters. The slope of Resazurin fluorescence was used a quantitative measure of cell metabolism.

Row | SMILES | sensitivity to antibiotic (IC50 versus CLSI or breakpoint) (MDR S. typhimurium) | sensitivity to antibiotic (IC50 versus CLSI or breakpoint) (MDR E. coli) | effect of antibiotic alone on growth (ESBL K. pneumoniae)
1 | O=C(N[C@H](CO)[C@H](O)c1ccc([N+](=O)[O-])cc1)C(Cl)Cl [chloramphenicol] | sensitive | sensitive | –
2 | [H]/N=C(/N)N[C@H]1[C@H](O)[C@@H](O)[C@H](O[C@@H]2O[C@@H](C)[C@](O)(C=O)[C@H]2O[C@@H]2O[C@@H](CO)[C@H](O)[C@@H](O)[C@@H]2NC)[C@@H](N/C(N)=N\[H])[C@@H]1O [streptomycin] | – | – | previously ineffective
